Experiments:
[1] = 298.15 K; 101.33 kPa; Liquid; Vibrating tube method
[2] = excess molar enthalpy (molar enthalpy of mixing); xn = mol fraction of the nth substance listed; conditions: 298.15 K, 101 kPa, Liquid, Flow calorimetry

CCCCN [1-butanamine]
Conditions | mass density [kg/m3]
[1] | 732.18

CCCCN [1-butanamine] + CC(=O)N(C)C
[2]
Conditions | excess molar enthalpy [kcal/mol]
x2 = 0.0498 | 0.0115
x2 = 0.0992 | 0.0213
x2 = 0.1518 | 0.0294
x2 = 0.1985 | 0.0363
x2 = 0.2512 | 0.0394
x2 = 0.3004 | 0.0452
x2 = 0.3493 | 0.0483
x2 = 0.4015 | 0.0495
x2 = 0.4508 | 0.05
x2 = 0.5005 | 0.0497
x2 = 0.5509 | 0.048
x2 = 0.6005 | 0.0466
x2 = 0.7008 | 0.0382
x2 = 0.7995 | 0.0287
x2 = 0.8502 | 0.0225
x2 = 0.9002 | 0.0153
x2 = 0.9594 | 0.00645

CCCCN [1-butanamine] + CN(C)C=O
[2]
Conditions | excess molar enthalpy [kcal/mol]
x2 = 0.051 | 0.0213
x2 = 0.1009 | 0.0397
x2 = 0.1496 | 0.054
x2 = 0.1703 | 0.059
x2 = 0.2005 | 0.0667
x2 = 0.2498 | 0.0765
x2 = 0.3007 | 0.0841
x2 = 0.3496 | 0.0891
x2 = 0.4008 | 0.0935
x2 = 0.4508 | 0.0939
x2 = 0.5008 | 0.0918
x2 = 0.5463 | 0.0894
x2 = 0.6008 | 0.0848
x2 = 0.6463 | 0.0779
x2 = 0.7011 | 0.0691
x2 = 0.7559 | 0.0586
x2 = 0.8005 | 0.0497
x2 = 0.8495 | 0.0378
x2 = 0.9003 | 0.0253
x2 = 0.9519 | 0.0131

CCCCCCN [1-hexanamine]
Conditions | mass density [kg/m3]
[1] | 760.16

CCCCCCN [1-hexanamine] + CC(=O)N(C)C
[2]
Conditions | excess molar enthalpy [kcal/mol]
x2 = 0.0509 | 0.017
x2 = 0.1005 | 0.0337
x2 = 0.1507 | 0.0468
x2 = 0.1994 | 0.0583
x2 = 0.2488 | 0.0705
x2 = 0.3018 | 0.0808
x2 = 0.3484 | 0.0882
x2 = 0.398 | 0.0961
x2 = 0.4502 | 0.1
x2 = 0.5006 | 0.101
x2 = 0.5493 | 0.101
x2 = 0.6002 | 0.0994
x2 = 0.6492 | 0.0958
x2 = 0.7001 | 0.0896
x2 = 0.7491 | 0.0815
x2 = 0.7996 | 0.0707
x2 = 0.8513 | 0.0569
x2 = 0.9008 | 0.0409
x2 = 0.9503 | 0.0217

CCCCCCN [1-hexanamine] + CN(C)C=O
[2]
Conditions | excess molar enthalpy [kcal/mol]
x2 = 0.0514 | 0.0282
x2 = 0.1007 | 0.0523
x2 = 0.1516 | 0.076
x2 = 0.2009 | 0.0942
x2 = 0.2522 | 0.11
x2 = 0.3006 | 0.127
x2 = 0.3519 | 0.14
x2 = 0.4007 | 0.148
x2 = 0.4518 | 0.155
x2 = 0.5003 | 0.158
x2 = 0.5505 | 0.158
x2 = 0.5982 | 0.155
x2 = 0.6507 | 0.147
x2 = 0.7002 | 0.136
x2 = 0.7503 | 0.122
x2 = 0.8005 | 0.105
x2 = 0.8506 | 0.0846
x2 = 0.8995 | 0.0588
x2 = 0.9502 | 0.0308

CC(=O)N(C)C [N,N-dimethylethanamide]
Conditions | mass density [kg/m3]
[1] | 936.14

CCCCNCCCC [dibutylamine]
Conditions | mass density [kg/m3]
[1] | 755.7

CCCCNCCCC [dibutylamine] + CC(=O)N(C)C
[2]
Conditions | excess molar enthalpy [kcal/mol]
x2 = 0.0499 | 0.0359
x2 = 0.0976 | 0.066
x2 = 0.151 | 0.0968
x2 = 0.1969 | 0.12
x2 = 0.2472 | 0.141
x2 = 0.3002 | 0.161
x2 = 0.3526 | 0.175
x2 = 0.3983 | 0.185
x2 = 0.4472 | 0.193
x2 = 0.5007 | 0.199
x2 = 0.5507 | 0.199
x2 = 0.6007 | 0.197
x2 = 0.6477 | 0.192
x2 = 0.6968 | 0.181
x2 = 0.7481 | 0.167
x2 = 0.8004 | 0.148
x2 = 0.8512 | 0.121
x2 = 0.9019 | 0.0887
x2 = 0.9507 | 0.0485

CCCCNCCCC [dibutylamine] + CN(C)C=O
[2]
Conditions | excess molar enthalpy [kcal/mol]
x2 = 0.0491 | 0.0449
x2 = 0.1014 | 0.0923
x2 = 0.1488 | 0.13
x2 = 0.2006 | 0.163
x2 = 0.2482 | 0.187
x2 = 0.3006 | 0.21
x2 = 0.351 | 0.228
x2 = 0.4021 | 0.247
x2 = 0.4497 | 0.259
x2 = 0.4982 | 0.266
x2 = 0.5505 | 0.267
x2 = 0.599 | 0.262
x2 = 0.65 | 0.253
x2 = 0.6997 | 0.239
x2 = 0.7506 | 0.22
x2 = 0.7994 | 0.195
x2 = 0.8503 | 0.16
x2 = 0.9 | 0.117
x2 = 0.9501 | 0.0645

CN(C)C=O [dimethylformamide]
Conditions | mass density [kg/m3]
[1] | 943.78

CCCNCCC [dipropylamine]
Conditions | mass density [kg/m3]
[1] | 733.37

CCCNCCC [dipropylamine] + CC(=O)N(C)C
[2]
Conditions | excess molar enthalpy [kcal/mol]
x2 = 0.0597 | 0.0234
x2 = 0.0996 | 0.0397
x2 = 0.1496 | 0.0562
x2 = 0.2011 | 0.0717
x2 = 0.2497 | 0.0856
x2 = 0.3009 | 0.0954
x2 = 0.3462 | 0.104
x2 = 0.4062 | 0.114
x2 = 0.4491 | 0.118
x2 = 0.5035 | 0.123
x2 = 0.5497 | 0.124
x2 = 0.5972 | 0.122
x2 = 0.6495 | 0.118
x2 = 0.6975 | 0.113
x2 = 0.7478 | 0.104
x2 = 0.8009 | 0.092
x2 = 0.8504 | 0.076
x2 = 0.8989 | 0.0571
x2 = 0.9368 | 0.0373
x2 = 0.9507 | 0.0301

CCCNCCC [dipropylamine] + CN(C)C=O
[2]
Conditions | excess molar enthalpy [kcal/mol]
x2 = 0.0358 | 0.021
x2 = 0.1002 | 0.0576
x2 = 0.1512 | 0.0839
x2 = 0.1984 | 0.107
x2 = 0.2504 | 0.126
x2 = 0.3016 | 0.142
x2 = 0.3483 | 0.157
x2 = 0.4005 | 0.166
x2 = 0.4495 | 0.176
x2 = 0.5005 | 0.179
x2 = 0.5505 | 0.18
x2 = 0.6012 | 0.178
x2 = 0.6587 | 0.169
x2 = 0.6997 | 0.161
x2 = 0.7518 | 0.147
x2 = 0.7983 | 0.13
x2 = 0.8485 | 0.105
x2 = 0.8991 | 0.076
x2 = 0.9504 | 0.0406

— the NIST ThermoML archive (doi:10.1016/j.fluid.2019.112283)
